The values below come from patent US9259491B2, “Class of diazepine derivative chelating agents and complexes with paramagnetic metals thereof as MRI contrast agents” (BRACCO IMAGING S.P.A., priority 2012, dated 2016).

A short description of data set [1]: Millimolar relaxivity r1p from T1 measurements in water, HSA 4% and human plasma (0.47T/20 MHz, 25° C.). The data set is classed as physicochemical. Here is the method:
(§1) For all the compounds, longitudinal relaxation times (T1) at 20 MHz and at 25° C. on a mq20 Minispec instrument (Bruker Biospin, Germany) were measured in water, human serum albumin at physiological concentration and human plasma. Millimolar relaxivity r1p was thus determined from T1 measurements using the following equation: R^i1obs=1/T^i,J1obs=r^i,j1p·[Gd^3+]+1/T^j1 wherein R^i1obs is the observed relaxation […] of the selected contrast agent, T1obs is the observed longitudinal relaxation time of the solution and the indexes i and j relate to the contrast agent and to the medium respectively.

A short description of data set [2]: Stability at 37° C. of diazepine complexes determined through r1p measurement in different media. The data set is classed as physicochemical. Particulars: 0.47T, 25° C. Here is the method:
as §1
In its turn, this means that the present amphiphilic complexes can be administered and detected during MRI experiments allowing a clear and exhaustive analysis of the image over a suitable frame of time.

For the molecule `CCCCCCCCN(CCCCCCCC)C(=O)C1CCC(C2(N(CC(=O)[O-])CC(=O)[O-])CN(CC(=O)[O-])CCN(CC(=O)[O-])C2)CC1.[Gd+3].[Na+]` [Compound 25b, [6-[Bis(carboxymethyl)amino]-6-[(1R,4R)-4-[(dioctylamino)-carbonyl]-cyclohexane-1-yl]tetrahydro-1H-1,4-diazepine-1,4(5H)diacetate(4-)]gadolinate(1-)]sodium], the results for the r1p in data set [1] (HSA 4%), in data set [1] (Human plasma) and in data set [1] (Water) were 41.0 mM⁻¹ s⁻¹, 39.1 mM⁻¹ s⁻¹ and 14.6 mM⁻¹ s⁻¹, respectively.

Consider `C[NH2+]C[C@H](O)[C@@H](O)[C@H](O)[C@H](O)CO.C[NH2+]C[C@H](O)[C@@H](O)[C@H](O)[C@H](O)CO.O=C([O-])CN(CCN(CC(=O)[O-])CC(=O)[O-])CCN(CC(=O)[O-])C(COCc1ccccc1)C(=O)[O-].[Gd+3]` (stereo not drawn) [Gd-BOPTA, [[4-(carboxy)-5,8,11-tris(carboxymethyl)-1-phenyl-2-oxa-5,8,11-triazatridecan-13-oato(5-)]gadolinate(2-)]dimeglumine, reference compound], for which the r1p in data set [1] (HSA 4%) was found to be 8.9 mM⁻¹ s⁻¹; in data set [1] (Human plasma) it was 8.7 mM⁻¹ s⁻¹; in data set [1] (Water) it was 4.6 mM⁻¹ s⁻¹.

As to `CCCCCCCCCCN(CCCCCCCCCC)C(=O)C1CCC(C2(N(CC(=O)[O-])CC(=O)[O-])CN(CC(=O)[O-])CCN(CC(=O)[O-])C2)CC1.[Gd+3].[Na+]` [Compound 25a, [[6-[Bis(carboxymethyl)amino]-6-[(1R,4R)-4-[(didecylamino)-carbonyl]-cyclohexane-1-yl]tetrahydro-1H-1,4-diazepine-1,4(5H)diacetate(4-)]gadolinate(1-)]sodium], the r1p in data set [1] (HSA 4%) was found to be 45.8 mM⁻¹ s⁻¹; in data set [1] (Human plasma), 41.1 mM⁻¹ s⁻¹; in data set [1] (Water), 23.9 mM⁻¹ s⁻¹. Also, the “r1p (stability at 37° C.)” value in data set [2] (HSA 4%, 5 h) was 40.4 mM⁻¹ s⁻¹; in data set [2] (HSA 4%, T0), 45.8 mM⁻¹ s⁻¹; in data set [2] (Water, 5 h), 23.4 mM⁻¹ s⁻¹; in data set [2] (Water, T0), 23.9 mM⁻¹ s⁻¹.

In the case of `O=C([O-])CN1CCN(CC(=O)[O-])CCN([C@H](CO)[C@H](O)CO)CCN(CC(=O)[O-])CC1.[Gd+3]` [Gd-BT-DO3A, reference compound], the r1p was found to be 4.31 mM⁻¹ s⁻¹ in data set [1] (HSA 4%), 5.76 mM⁻¹ s⁻¹ in data set [1] (Human plasma) and 3.75 mM⁻¹ s⁻¹ in data set [1] (Water).

With `CCCCCCCCN(CCCCCCCC)C(=O)CCCCC1(N(CC(=O)[O-])CC(=O)[O-])CN(CC(=O)[O-])CCN(CC(=O)[O-])C1.[Gd+3].[Na+]` [Compound 12c, [[6-[Bis[(carboxy)methyl]amino]-6-[5-(dioctylamino)-5-oxopent-1-yl]-tetrahydro-1H-1,4-diazepine-1,4(5H)-diacetate(4-)]gadolinate(1-)]sodium], the r1p in data set [1] (HSA 4%) was 54.2 mM⁻¹ s⁻¹; in data set [1] (Human plasma), 50.2 mM⁻¹ s⁻¹; in data set [1] (Water), 13.3 mM⁻¹ s⁻¹.

In the case of `CCCCCCCCCCCC(=O)OC[C@H](COP(=O)(O)OCCNC(=O)CCCCC1(N(CC(=O)[O-])CC(=O)[O-])CN(CC(=O)[O-])CCN(CC(=O)[O-])C1)OC(=O)CCCCCCCCCCC.[Gd+3].[Na+]` [Compound 9b], the r1p in data set [1] (HSA 4%) amounted to 32.0 mM⁻¹ s⁻¹; in data set [1] (Human plasma) it was 32.5 mM⁻¹ s⁻¹; in data set [1] (Water), 16.7 mM⁻¹ s⁻¹. The “r1p (stability at 37° C.)” value in data set [2] (Human plasma, 1 h) was 30.9 mM⁻¹ s⁻¹; in data set [2] (Human plasma, 4 h) it was 28.3 mM⁻¹ s⁻¹; in data set [2] (Human plasma, T0), 32.5 mM⁻¹ s⁻¹; in data set [2] (Water, 1 h), 15.9 mM⁻¹ s⁻¹; in data set [2] (Water, 4 h), 15.5 mM⁻¹ s⁻¹; in data set [2] (Water, T0) it was 16.7 mM⁻¹ s⁻¹.

As for `CCCCCCCCCCCCN(CCCCCCCCCCCC)C(=O)CCCCC1(N(CC(=O)[O-])CC(=O)[O-])CN(CC(=O)[O-])CCN(CC(=O)[O-])C1.[Gd+3].[Na+]` [Compound 12e, [[6-[Bis[(carboxy)methyl]amino]-6-[5-(didodecylamino)-5-oxopent-1-yl]-tetrahydro-1H-1,4-diazepine-1,4(5H)-diacetate(4-)]gadolinate(1-)]sodium], the r1p in data set [1] (HSA 4%) amounted to 40.4 mM⁻¹ s⁻¹; in data set [1] (Human plasma), 36.2 mM⁻¹ s⁻¹; in data set [1] (Water), 33.4 mM⁻¹ s⁻¹. Further, the “r1p (stability at 37° C.)” value in data set [2] (Human plasma, 2 h) worked out at 35.2 mM⁻¹ s⁻¹; in data set [2] (Human plasma, 4 h) it was 32.3 mM⁻¹ s⁻¹; in data set [2] (Human plasma, T0), 36.2 mM⁻¹ s⁻¹; in data set [2] (Water, 2 h), 31.3 mM⁻¹ s⁻¹; in data set [2] (Water, 4 h), 30.4 mM⁻¹ s⁻¹; in data set [2] (Water, T0) it was 33.4 mM⁻¹ s⁻¹.

Take `CCCCCCN(CCCCCC)C(=O)CCCCC1(N(CC(=O)[O-])CC(=O)[O-])CN(CC(=O)[O-])CCN(CC(=O)[O-])C1.[Gd+3].[Na+]` [Compound 12b, [[6-[Bis[(carboxy)methyl]amino]-6-[5-(dihexylamino)-5-oxopent-1-yl]-tetrahydro-1H-1,4-diazepine-1,4(5H)-diacetate(4-)]gadolinate(1-)]sodium]: the r1p in data set [1] (HSA 4%) stood at 31.5 mM⁻¹ s⁻¹; in data set [1] (Human plasma) it was 33.7 mM⁻¹ s⁻¹; in data set [1] (Water), 13.0 mM⁻¹ s⁻¹.

Consider `CCCCCCCCCCN(CCCCCCCCCC)C(=O)CCCCC1(N(CC(=O)[O-])CC(=O)[O-])CN(CC(=O)[O-])CCN(CC(=O)[O-])C1.[Gd+3].[Na+]` [Compound 12d, [[6-[Bis[(carboxy)methyl]amino]-6-[5-(didecylamino)-5-oxopent-1-yl]-tetrahydro-1H-1,4-diazepine-1,4(5H)-diacetate(4-)]gadolinate(1-)]sodium], for which the r1p in data set [1] (HSA 4%) was determined as 46.7 mM⁻¹ s⁻¹; in data set [1] (Human plasma), 45.2 mM⁻¹ s⁻¹; in data set [1] (Water), 23.5 mM⁻¹ s⁻¹. Moreover, the “r1p (stability at 37° C.)” value in data set [2] (HSA 4%, 5 h) is 40.9 mM⁻¹ s⁻¹; in data set [2] (HSA 4%, T0), 46.7 mM⁻¹ s⁻¹; in data set [2] (Human plasma, 2 h), 39.2 mM⁻¹ s⁻¹; in data set [2] (Human plasma, 5 h), 34.7 mM⁻¹ s⁻¹; in data set [2] (Human plasma, T0), 45.2 mM⁻¹ s⁻¹; in data set [2] (Water, 2 h), 20.4 mM⁻¹ s⁻¹. In addition, the “r1p (stability at 37° C.)” value was 15.8 mM⁻¹ s⁻¹ in data set [2] (Water, 5 h) and 23.5 mM⁻¹ s⁻¹ in data set [2] (Water, T0).

Regarding `CC(O)CN1CCN(CC(=O)[O-])CCN(CC(=O)[O-])CCN(CC(=O)[O-])CC1.[Gd+3]` (stereo not drawn) [Gd-HP-DO3A, [10-(2-hydroxyprop-1-yl)-1,4,7,10-tetraazacyclododecane-1,4,7-triacetato(3-)]gadolinium, reference compound], the figures for the r1p in data set [1] (HSA 4%), in data set [1] (Human plasma) and in data set [1] (Water) were 3.85 mM⁻¹ s⁻¹, 4.80 mM⁻¹ s⁻¹ and 3.32 mM⁻¹ s⁻¹, respectively.

Take `C[NH2+]C[C@H](O)[C@@H](O)[C@H](O)[C@H](O)CO.O=C([O-])CN1CCN(CC(=O)[O-])CCN(CC(=O)[O-])CCN(CC(=O)[O-])CC1.[Gd+3]` [Gd-DOTA, [[1,4,7,10-tetraazacyclododecane-1,4,7,10-tetraacetato(4-)]gadolinate(1-)] meglumine, reference compound]: the r1p in data set [1] (HSA 4%) is 4.11 mM⁻¹ s⁻¹; in data set [1] (Human plasma) it was 4.51 mM⁻¹ s⁻¹; in data set [1] (Water) it was 3.61 mM⁻¹ s⁻¹.

Consider `CCCCCCCCCC(=O)OC[C@H](COP(=O)([O-])OCCNC(=O)C1CCC(C2(N(CC(=O)[O-])CC(=O)[O-])CN(CC(=O)[O-])CCN(CC(=O)[O-])C2)CC1)OC(=O)CCCCCCCCC.[Gd+3].[Na+].[Na+]` (stereo partly drawn) [Compound 25c, [6-[-[Bis(carboxymethyl)amino]-6-[(1R,4R)-4-[[[(7R)-4-hydroxy-4-oxido-10-oxo-7-[(1-oxodecyl)oxy]-3,5,9-trioxa-4-phosphanonadec-1-yl]amino]-carbonyl]-cyclohexane-1-yl]tetrahydro-1H-1,4-diazepine-1,4(5H)-diacetate(5)]gadolinate(2-)]disodium], for which the r1p in data set [1] (HSA 4%) was 40.2 mM⁻¹ s⁻¹; in data set [1] (Human plasma), 43.0 mM⁻¹ s⁻¹; in data set [1] (Water), 14.7 mM⁻¹ s⁻¹.
